According to ChEMBL document CHEMBL1201862, “PubChem BioAssay data set” (2004):
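Dose response: 5 concentrations. Exposure: 48 h. Format: 96-well plates. Endpoint: linear interpolation; highest concentration if not reached. Abbreviation: GI50, concentration required for 50% inhibition of growth.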 Calls of active or inactive are those of the source. No stated cut-off is given here; in the data, active = GI50 up to about 1.1 µM and inactive = higher.

Tests used:
Experiment in all cases: NCI-60 cell line screen, 48 h
BT-549 = system: BT-549
SF-268 = system: SF-268
SF-539 = system: SF-539
HOP-62 = system: HOP-62
HL-60 = system: HL-60
CCRF-CEM = system: CCRF-CEM
COLO 205 = system: COLO 205
Hs-578T = system: Hs-578T
NCI/ADR-RES = system: NCI/ADR-RES
NCI-H460 = system: NCI-H460
HCT-15 = system: HCT-15
NCI-H23 = system: NCI-H23
MDA-MB-231 = system: MDA-MB-231
OVCAR-8 = system: OVCAR-8
NCI-H522 = system: NCI-H522
KM12 = system: KM12
SNB-75 = system: SNB-75
SK-MEL-2 = system: SK-MEL-2
786-0 = system: 786-0
HCC 2998 = system: HCC 2998

Structure (SMILES)	GI50 (BT-549)	GI50 (SF-268)	GI50 (SF-539)	GI50 (HOP-62)	GI50 (HL-60)	GI50 (CCRF-CEM)	GI50 (COLO 205)	GI50 (Hs-578T)	GI50 (NCI/ADR-RES)	GI50 (NCI-H460)	GI50 (HCT-15) [µM]	GI50 (NCI-H23)	GI50 (MDA-MB-231)	GI50 (OVCAR-8)	GI50 (NCI-H522)	GI50 (KM12)	GI50 (SNB-75)	GI50 (SK-MEL-2)	GI50 (786-0)	GI50 (HCC 2998)
Cc1ccc(-c2nc(-c3nccc4ccccc34)oc2-c2ccccc2)cc1	> 100 µM (inactive)	73.5 µM (inactive)	46 µM (inactive)	> 100 µM (inactive)	> 100 µM (inactive)	84.1 µM (inactive)	42.9 µM (inactive)	75 µM (inactive)	98.2 µM (inactive)	26.7 µM (inactive)	22.9	> 100 µM (inactive)	> 100 µM (inactive)	79.1 µM (inactive)	43 µM (inactive)	43.1 µM (inactive)	31.6 µM (inactive)	51.9 µM (inactive)	26.6 µM (inactive)	–
OCCCN=C1CCCCC1	> 100 µM (inactive)	> 100 µM (inactive)	> 100 µM (inactive)	> 100 µM (inactive)	> 100 µM (inactive)	–	> 100 µM (inactive)	69.8 µM (inactive)	> 100 µM (inactive)	> 100 µM (inactive)	> 100	> 100 µM (inactive)	> 100 µM (inactive)	> 100 µM (inactive)	77.4 µM (inactive)	> 100 µM (inactive)	–	56.8 µM (inactive)	> 100 µM (inactive)	–
Cc1ccc([N+](=O)[O-])cc1S(=O)(=O)Nc1ccc(C2=NNC(c3cccs3)C2)cc1 (stereo unspecified)	23.2 µM (inactive)	36.8 µM (inactive)	48.1 µM (inactive)	24.3 µM (inactive)	0.0627 µM (active)	20.2 µM (inactive)	6.87 µM (inactive)	58.2 µM (inactive)	26.5 µM (inactive)	25.4 µM (inactive)	17	22.2 µM (inactive)	–	54.2 µM (inactive)	24.7 µM (inactive)	16.5 µM (inactive)	31.3 µM (inactive)	33.7 µM (inactive)	31.3 µM (inactive)	30.8 µM (inactive)
CC(NC(=O)Cc1ccccc1)NC(=O)C(C)C(=O)NCc1ccccc1 (stereo unspecified)	27.9 µM (inactive)	33.3 µM (inactive)	82.4 µM (inactive)	–	> 100 µM (inactive)	> 100 µM (inactive)	> 100 µM (inactive)	30.3 µM (inactive)	> 100 µM (inactive)	> 100 µM (inactive)	> 100	> 100 µM (inactive)	46.8 µM (inactive)	32.4 µM (inactive)	> 100 µM (inactive)	> 100 µM (inactive)	38.8 µM (inactive)	75.3 µM (inactive)	> 100 µM (inactive)	–
Cc1nc(-c2cc3cc(Cl)ccc3oc2=O)cc2c1c(=O)oc1ccc(Cl)cc12	> 100 µM (inactive)	> 100 µM (inactive)	–	> 100 µM (inactive)	> 100 µM (inactive)	> 100 µM (inactive)	> 100 µM (inactive)	72.3 µM (inactive)	> 100 µM (inactive)	> 100 µM (inactive)	> 100	> 100 µM (inactive)	> 100 µM (inactive)	> 100 µM (inactive)	70.3 µM (inactive)	> 100 µM (inactive)	–	> 100 µM (inactive)	> 100 µM (inactive)	> 100 µM (inactive)
Cc1c(Cl)cccc1NC(=O)/C=C/c1ccccc1	> 100 µM (inactive)	74.1 µM (inactive)	43 µM (inactive)	> 100 µM (inactive)	> 100 µM (inactive)	> 100 µM (inactive)	> 100 µM (inactive)	38.3 µM (inactive)	–	> 100 µM (inactive)	> 100	> 100 µM (inactive)	17.7 µM (inactive)	38 µM (inactive)	> 100 µM (inactive)	77.8 µM (inactive)	22.8 µM (inactive)	> 100 µM (inactive)	62.7 µM (inactive)	> 100 µM (inactive)
Clc1ccc2c(c1)CC1C[N+]3=C(CCCCC3)C1=C2 (stereo unspecified)	26.5 µM (inactive)	50.8 µM (inactive)	–	> 100 µM (inactive)	> 100 µM (inactive)	> 100 µM (inactive)	28.9 µM (inactive)	85.3 µM (inactive)	> 100 µM (inactive)	33 µM (inactive)	> 100	37.4 µM (inactive)	33 µM (inactive)	28.3 µM (inactive)	38.8 µM (inactive)	50.5 µM (inactive)	0.349 µM (active)	28.8 µM (inactive)	> 100 µM (inactive)	–
CCOC(=O)C1(C(=O)OCC)CN(CC)CN(c2ccccc2)C1	20.8 µM (inactive)	69.2 µM (inactive)	21.5 µM (inactive)	21.1 µM (inactive)	22.2 µM (inactive)	16.2 µM (inactive)	18.2 µM (inactive)	> 100 µM (inactive)	45.6 µM (inactive)	35.4 µM (inactive)	16	18.4 µM (inactive)	–	21.5 µM (inactive)	29.3 µM (inactive)	> 100 µM (inactive)	19.4 µM (inactive)	–	19.8 µM (inactive)	15.4 µM (inactive)
CCN(CCCN(CC)C(=O)N[C@@H](Cc1ccccc1)C(=O)NC)C(=O)N[C@@H](Cc1ccccc1)C(=O)NC	> 100 µM (inactive)	> 100 µM (inactive)	> 100 µM (inactive)	> 100 µM (inactive)	–	–	> 100 µM (inactive)	> 100 µM (inactive)	> 100 µM (inactive)	> 100 µM (inactive)	> 100	> 100 µM (inactive)	> 100 µM (inactive)	> 100 µM (inactive)	> 100 µM (inactive)	> 100 µM (inactive)	–	> 100 µM (inactive)	> 100 µM (inactive)	> 100 µM (inactive)
C=CCCC1CCCCNC1=S (stereo unspecified)	> 10 µM (inactive)	> 10 µM (inactive)	> 10 µM (inactive)	> 10 µM (inactive)	> 10 µM (inactive)	> 10 µM (inactive)	> 10 µM (inactive)	> 10 µM (inactive)	> 10 µM (inactive)	> 10 µM (inactive)	> 10	> 10 µM (inactive)	> 10 µM (inactive)	> 10 µM (inactive)	–	> 10 µM (inactive)	–	> 10 µM (inactive)	> 10 µM (inactive)	> 10 µM (inactive)
CCOC(=O)[C@@H]1C[C@@H]1c1ccc(O)c(O)c1	19.7 µM (inactive)	30.8 µM (inactive)	20.6 µM (inactive)	17.6 µM (inactive)	–	–	27.4 µM (inactive)	43.1 µM (inactive)	46.6 µM (inactive)	58.9 µM (inactive)	45.5	43.4 µM (inactive)	11 µM (inactive)	21.8 µM (inactive)	4.62 µM (inactive)	26 µM (inactive)	–	29.7 µM (inactive)	16.1 µM (inactive)	24.9 µM (inactive)
COc1ccc(/C=C2\CN(C)CC3=C2OC(N)=C(C#N)C3c2ccc(OC)cc2)cc1 (stereo unspecified)	> 100 µM (inactive)	48.6 µM (inactive)	> 100 µM (inactive)	> 77.4 µM (inactive)	–	7.57 µM (inactive)	> 52.1 µM (inactive)	88.1 µM (inactive)	51.9 µM (inactive)	24.9 µM (inactive)	55.6	> 68.2 µM (inactive)	42.4 µM (inactive)	19.9 µM (inactive)	14.5 µM (inactive)	> 56.5 µM (inactive)	–	> 45.9 µM (inactive)	30.5 µM (inactive)	23.8 µM (inactive)
